Results published in patent US20150374705A1, “Substances for treatment or relief of pain” (Shanghai Institues for Biological Sciences, priority 2012, published 2015).
“Also recorded” adds a separate entry of the source.

Experiments:
[1] = system: SNI model rats (neuropathic pain); experiment: Spared nerve injury (SNI) model, neuropathic pain, mechanical pain threshold; assay type: in vivo; conditions: rat
Description: Male SD rats (200-250 g) were used, 6 per group in the cage. All the animals were placed under 12 hours light/cycle (i.e. 12 hours light and 12 hours dark in each day), free to food and water. All the experiments were conducted under the condition that the observers were blind to pharmaceutical treatment.
Spared nerve injury model (SNI): 10% chloral hydrate was injected intraperitoneally to anesthetize rats. […] The muscle was longitudinally separated to expose the core of sciatic nerve and the branching below: tibial nerve, common peroneal nerve and sural nerve. The tibial nerve and common peroneal nerve were ligatured and cut and small sural nerve was retained, meanwhile preventing any injury. The muscle and skin were sutured layer by layer, and then antibiotics were injected intraperitoneally for antibacterial purpose. For detailed methods, please refer to Decosterd I and Woolf C J. Spared nerve injury: an animal model of persistent peripheral neuropathic pain. 2000 August; Pain 87(2):149-58.
Method for detecting mechanical hyperalgesia in rats: firstly CFA solution was injected in the thenar of rats. After 24 hours, mechanical hyperalgesia quantitative detection was adopted to measure the paw withdrawal of rats to normal and harmless mechanical stimulation. Evaluation was conducted according to reference (Chaplan S R et al., Quantitative assessment of tactile allodynia in the rat paw. J Neurosci Methods. 1994 July; 53(1):55-63). In this method, the von Frey fibers with different bending force (equivalent to the range of 1-50 g force) were used to apply harmless mechanical stimulation. The rats were placed in organic glass box with metal mesh plate, and the von Frey fibers were applied on the surface of leg thenar. The von Frey fibers were applied vertically to the surface of thenar to generate the force that will trigger slight resistance to the leg. 2-3 seconds were maintained for every leg thenar. If the leg withdrew suddenly, positive records were recorded. The threshold was the mean of the weight that caused 50% paw withdrawal response (5-6 paw withdrawal/10 stimulations) in overall 10 stimulations.
Compounds MRK 016, C2, C3, C4, C5, C6, C7, C8 or α5IA (A5I) were dissolved in 70% PGE400 (PGE400:water=70:30 in volume). For injection dose, MRK016 was 2 mg/kg body weight; A5I was 3 mg/kg body weight; C2, C3, C4, C5, C6, C7 and C8 were 3 mg/kg body weight.
MRK016-M3 was dissolved in 90% PGE400 (PGE400:water=90:10 in volume). The doses were 10 mg/kg, 3 mg/kg, 1 mg/kg and 0.3 mg/kg, respectively for oral administration.
The method for behavioral data statistics was unpaired t-test. *, p<0.05, represents significant difference.

[2] = system: CFA induced inflammatory pain model rats (heat pain); experiment: CFA induced inflammatory pain model, heat pain threshold; assay type: in vivo; conditions: rat, 1 hour after administration
[3] = system: CFA induced inflammatory pain model rats (mechanical pain); experiment: CFA induced inflammatory pain model, mechanical pain threshold; assay type: in vivo; conditions: rat, 1 hour after administration
[4] = system: pentetrazol induced epilepsy in rats; experiment: Pentetrazol induced epilepsy assay; assay type: in vivo; conditions: rat, subcutaneous 1, 3, 10 and 15 mg/kg, 100 mg/kg pentetrazol 0.5 hour later
Description: Pentetrazol induced epilepsy assays: firstly, C5 or 70% PGE400 was injected to rats, and then 100 mg/kg pentetrazol was subcutaneously injected to rats half an hour later. Pentetrazol was dissolved in saline water. Then the convulsive response of rats was observed. Fatholahi standard was adopted to score the convulsive response. Grade 0, no response; Grade 1, rhythmic mouth and face spasm; Grade 2, fluctuating wandering spasm of body; Grade 3, systemic myoclonus and warped hip; Grade 4, body turning to one side; Grade 5, renvers and systemic tetanic convulsion. It took 30 minutes for observation after administration. The highest grade and the latency time from pentetrazol injection to the induction of the highest grade were collected.

[5] = target: T1, Human recombinant GABAA receptor containing α1 subunit (α1, β3, γ2) (Homo sapiens, UniProt P14867+P18507); experiment: Competitive radioligand binding ([3H]Ro-0151788) on membranes of 293 cells, Ki; conditions: human recombinant GABAA subtype containing α1; read-out: Affinity, nM (α1)
T1 construct: expressed in transfected cells; host or cells: 293 cell line
Description: (§1) Different subunits of GABAA receptor were expressed in cell lines, including human kidney epithelial cell line, 293 cell line or L(tk−) cell line. The cells were cultured in medium, and such cells were used as the cellular model for screening drugs to suppress pain. a subunit, β subunit and γ subunit are indispensable for one complete functional GABAA receptor.
(§2) In this example, the inventors established the following cellular models:
(§3) (b) simultaneously expressing α1 subunit (GenBank accession number: NM_001127648.1), β3 subunit and γ2 subunit in 293 cell line, forming the GABAA receptor containing α1 subunit; • (c) simultaneously expressing α2 subunit (for the protein sequence, see GenBank accession number NM_000813.2), β3 subunit and γ2 subunit in 293 cell line, forming the GABAA receptor containing α2 subunit;
(§4) Each of the (a) to (d) above could form a GABAA receptor with complete function.
(§5) Then, the cellular membrane was extracted and the protein concentration was measured. The competitive binding of the substances to be measured and radiolabelled compounds (e.g. 1 nM [^3H]Ro-0151788) were detected respectively to calculate the Ki value of the substances to be measured, see the method described in literature (Ballard T M et al., RO4938581, a novel cognitive enhancer acting at GABAA alpha5 subunit-containing receptors. Psychopharmacology (Berl). 2009 January; 202(1-3): 207-23). If the binding inhibition constant Ki (nM) of α5-GABAA receptor with the candidate substances in experimental group is less than the Ki of the receptor containing other a subunit (α1 subunit, α2 subunit or α3 subunit), then the candidate substance is a potential drugs for preventing, relieving or treating pain. Many methods can be used by those skilled in the art to evaluate the binding capacity of the ligand of α5-GABAA receptor to the α5-GABAA receptor, including but not limiting to the method above.

[6] = target: T2, Human recombinant GABAA receptor containing α2 subunit (α2, β3, γ2) (Homo sapiens, UniProt P18507+P47869); experiment: as above; conditions: human recombinant GABAA subtype containing α2; read-out: Affinity, nM (α2)
T2 construct: expressed in transfected cells; host or cells: 293 cell line
Description: as §1, §2, §3, §4, §5

[7] = target: T3, Human recombinant GABAA receptor containing α3 subunit (α3, β3, γ2) (Homo sapiens, UniProt P18507+P34903); experiment: as above; conditions: human recombinant GABAA subtype containing α3; read-out: Affinity, nM (α3)
T3 construct: expressed in transfected cells; host or cells: 293 cell line
Description: as §1, §2
(§6) (d) simultaneously expressing α3 subunit (for the protein sequence, see GenBank accession number NM_000808.3), β3 subunit and γ2 subunit in 293 cell line, forming the GABAA receptor containing α3 subunit;
as §4, §5

[8] = target: T4, Human recombinant GABAA receptor containing α5 subunit (α5, β3, γ2) (Homo sapiens, UniProt P18507+P31644); experiment: as above; conditions: human recombinant GABAA subtype containing α5; read-out: Affinity, nM (α5)
T4 construct: expressed in transfected cells; host or cells: 293 cell line
Description: as §1, §2
(§7) (a) simultaneously expressing α5 subunit (for the protein sequence, see GenBank accession number NM_001165037.1), β3 subunit (for the protein sequence, see GenBank accession number NM_021912.4) and γ2 subunit (for the protein sequence, see GenBank accession number NM_198904.2) in 293 cell line, forming the GABAA receptor containing α5 subunit;
as §4, §5

[9] = target: T5, Human recombinant GABAA receptor containing α1 subunit (Homo sapiens, UniProt P14867+P18507); experiment: Electrophysiological inverse agonist efficacy on GABA-induced current; assay type: cell-based; conditions: change of GABA-induced current; negative = inhibition
T5 construct: expressed in transfected cells; host or cells: 293 cell line
Description: as §1, §3
(§8) The inventors used electrophysiological methods to measure the inverse agonist efficacy of the substances to be measured, see the method described in literature (Ballard T M et al., RO4938581, a novel cognitive enhancer acting at GABAA alpha5 subunit-containing receptors. Psychopharmacology (Berl). 2009 January; 202 (1-3): 207-23). […] Many methods can be used by those skilled in the art to evaluate the binding capacity of the ligand of α5-GABAA receptor to the α5-GABAA receptor, including but not limiting to the method above.
(§9) Inverse agonist efficacy represents the inhibition percentage of the candidate substance on the current induced by GABA through α5-GABAA receptor=(the current intensity induced by GABA through α5-GABAA receptor with the existence of candidate substance−the current intensity induced by GABA through α5-GABAA receptor without the existence of candidate substance)/the current intensity induced by GABA through α5-GABAA receptor without the existence of candidate substance.

[10] = system: Human recombinant GABAA receptor containing α2 subunit; experiment: as above; assay type: cell-based; conditions: change of GABA-induced current; negative = inhibition
Description: as §1, §3, §8, §9

[11] = target: T6, Human recombinant GABAA receptor containing α3 subunit (Homo sapiens, UniProt P18507+P34903); experiment: as above; assay type: cell-based; conditions: change of GABA-induced current; negative = inhibition
T6 construct: expressed in transfected cells; host or cells: 293 cell line
Description: as §1, §6, §8, §9

[12] = target: T7, Human recombinant α5-GABAA receptor (Homo sapiens, UniProt P18507+P31644); experiment: as above; assay type: cell-based; conditions: change of GABA-induced current; negative = inhibition
T7 construct: expressed in transfected cells; host or cells: 293 cell line
Description: as §1, §7, §8, §9

[13] = system: α5-GABAA receptor in central nervous system; conditions: in vivo, Jones et al. 2006; cited from earlier work
[14] = human, Phase I; cited from earlier work
[15] = target: T7, Human recombinant α5-GABAA receptor; conditions: Jones et al. 2006; cited from earlier work

Row | Effect on pentetrazol induced epilepsy (responsive grade and latency time) [4] | Ki [5] [nM] | Ki [6] [nM] | Ki [7] [nM] | Ki [8] [nM] | Inverse agonist efficacy, % (α1) [9] [%] | Inverse agonist efficacy, % (α3) [11] [%] | Inverse agonist efficacy, % (α5) [12] [%] | Compound | Neuropathic pain (SNI model), analgesic effect ([1]; 3 mg/kg subcutaneous, 14 days after SNI, 1 hour after administration, 3 mg/kg) | Suppression of neuropathic pain at different time points ([1]; subcutaneous 1 mg/kg or 3 mg/kg, 14 days after SNI, 0.5-12 hours after administration) | CFA induced inflammatory pain model (heat pain), analgesic effect ([2]; 3 mg/kg injection, 3 days after CFA, 3 mg/kg) | CFA induced inflammatory pain model (mechanical pan), analgesic effect ([3]; 3 mg/kg injection, 7 days after CFA, 3 mg/kg) | Inverse agonist efficacy, % (α2) [10] [%] | Suppression of neuropathic pain (mechanical pain threshold) ([1]; subcutaneous injection 2 mg/kg, 7 days after SNI model, 1 hour after administration) | Suppression of heat pain ([2]; 2 mg/kg intraperitoneal, 3 days after CFA model, 2 mg/kg) | Suppression of mechanical pain ([3]; 2 mg/kg intraperitoneal, 7 days after CFA model, 2 mg/kg) | Binding to α5-GABAA receptor in brain / inhibition of (3H)Ro-15-1788 binding in center [13] | Side effects in Phase I clinical trial [14] | Inverse agonist effect of α5-GABAA receptor [15]
1 | no effect | – | – | – | – | – | – | – | OCc1cc(-c2nnc3c4ccccc4c(OCc4ccccn4)nn23)no1 [Compound C5, {3-[6-(Pyridin-2-ylmethoxy)-[1,2,4]triazolo[3,4-a]phthalazin-3-yl]-isoxazol-5-yl}-methanol] | efficiently inhibit nociceptive response; also recorded: efficiently suppressed neuropathic pain | efficiently could inhibit nociceptive response; also recorded: efficiently suppressed neuropathic pain | efficiently inhibit nociceptive response; also recorded: efficiently suppressed heat pain or mechanical pain response | efficiently inhibit nociceptive response; also recorded: efficiently suppressed heat pain or mechanical pain response | – | – | – | – | – | – | –
2 | – | 0.83 | 0.85 | 0.77 | 1.36 | −16 | −9 | −55 | Cc1cc(-c2nncc3c(C(C)(C)C)c(OCc4ncnn4C)nn23)no1 [MRK016, 3-tert-butyl-7-(5-methylisoxazol-3-yl)-2-(1-methyl-1H-1,2,4-triazol-5-ylmethoxy)-pyrazolo[1,5-d]-[1,2,4]triazine] | – | – | – | – | 6 | efficiently suppressed neuropathic pain | efficiently suppressed heat pain; also recorded: efficiently suppress heat pain | efficiently suppressed mechanical pain; also recorded: efficiently suppress mechanical pain | can efficiently inhibit; also recorded: focused in the brain | front heaviness, headache and nausea and vomiting | –
3 | – | 26 | – | 9.8 | 9.4 | −41 | −32 | −40 | Cc1cc(-c2nncc3c(C(C)(C)CO)c(OCc4ncnn4C)nn23)no1 [MRK016-M2] | – | – | – | – | −23 | – | – | – | not capable of binding the α5-GABAA receptor in brain | – | significant inverse agonist effect
